Source: patent US3987175A, “Derivatives of phenoxy isobutyric acid having hypolipemizing and hypocholesterolemizing action” (Pierre Fabre S.A., priority 1974, dated 1976)
Where a name gives a salt, the structure may show the parent alone.

What was measured:
[1] = Hypercholesterolemia induced by the administration of Triton WR 1339; assay type: in vivo; conditions: male rats; for Cholesterol % variation / Kunkel phenol % variation: Triton 200 mg/kg IV, 18 hours
Method: 3. […] Immediately after the injection, the products to be tested were administered IP and new samples of blood taken 18 hours later (at the maximum of the hypocholesterolemia produced by the Triton). |P being the biochemical parameter under consideration | p Triton + product p Triton + product | - | + 18 hours at the start |1 - × 100 | p Triton p Triton | - | + 18 hours at the start

[2] = Acute test: cholesterol and triglycerides 4 hours after intraperitoneal administration; assay type: in vivo; conditions: rats
Method: The products to be studied were administered intraperitoneally to groups of identical rats; the doses were calculated on a basis of clofibrate in order to make the tests fully comparative. After a period of 4 hours, blood was removed by heart puncture and cholesterol and triglycerides determined.

[3] = Test covering 4 days of treatment by oral administration, normal diet (cholesterol, Kunkel's phenol test); assay type: in vivo; conditions: rats, fifth day
Source text: 2. Test covering 4 days of treatment by oral administration. In a lot of 30 rats subjected to a normal diet, the blood samplings were effected and the determinations of cholesterol and lipoproteins (Kunkel's phenol test) were made on the fifth day.

[4] = Acute toxicity, LD50 (method of Miller and Tainter, mortality observed for 4 days); conditions: mouse, in vivo, mice
Source text: The above-described chemical compounds were submitted to toxicity tests. The acute toxicity of certain compounds determined by the 50% lethal dose is entered in the following Table:
The LD50 was studied in accordance with the method of Miller and Tainter, the mortality of mice being observed for 4 days.

[5] = Solubility characteristics; assay type: physicochemical
[6] = clofibrate 200 mg/kg IP, NS (not significant)
[7] = IP, clofibrate 200 mg/kg, 4 hours
[8] = IP, F 1393 340 mg/kg, 4 hours (comparison with reference products)
[9] = acute dose study, 340 mg/kg, HS (highly significant)
[10] = nicotinic acid 100 mg/kg IP, HS (highly significant)
[11] = IP, nicotinic acid 140 mg/kg, 4 hours

CCOC(=O)C(C)(C)Oc1ccc(Cl)cc1 [Clofibrate]
Cholesterol % variation [1, 6]: -15%
Kunkel phenol % variation [1, 6]: -23%
Activity in the Triton test (in words) ([1]; Triton WR 1339): inactive
Cholesterol % variation referred to the control [2, 7]: -17%
Triglycerides % variation referred to the control [2, 7]: +23%
Cholesterol % variation referred to the control ([3]; clofibrate 200 mg/kg): -34%
Kunkel phenol test % variation referred to the control ([3]; clofibrate 200 mg/kg): -29%

CC(C)(Oc1ccc(Cl)cc1)C(=O)OCCNC(=O)c1cccnc1 [F 1393, Hydrochloride of N-nicotinoyl, O-(p-chloro phenoxy) isobutanoyl ethanol amine]
Cholesterol % variation ([1]; F 1393 340 mg/kg IP, HS (highly significant)): -68%
Kunkel phenol % variation ([1]; F 1393 340 mg/kg IP, S): -89%
LD50 at 96 h ([4]; po, by mouth): 3100 mg/kg
LD50 at 96 h ([4]; ip): 560 mg/kg
Cholesterol % variation referred to the control [2, 8]: -32%
Triglycerides % variation referred to the control [2, 8]: -43%
Triglycerides % variation referred to the control ([2]; acute dose study, 50 mg/kg, HS (highly significant)): -26%
Cholesterol % variation referred to the control ([2]; acute dose study, 50 mg/kg, NS (not significant)): -10%
Cholesterol % variation referred to the control ([2]; acute dose study, 100 mg/kg): -0%
Triglycerides % variation referred to the control ([2]; acute dose study, 100 mg/kg, HS (highly significant)): -29%
Cholesterol % variation referred to the control ([2]; acute dose study, 200 mg/kg, HS (highly significant)): -22%
Triglycerides % variation referred to the control ([2]; acute dose study, 200 mg/kg, S): -19%
Cholesterol % variation referred to the control [2, 9]: -35%
Triglycerides % variation referred to the control [2, 9]: -43%
Cholesterol % variation referred to the control ([3]; F 1393 340 mg/kg): -44%
Kunkel phenol test % variation referred to the control ([3]; F 1393 340 mg/kg): -52%
Solubility in N-methyl pyrrolidone ([5]; N-methyl pyrrolidone): 16%
Solubility in ethanol [5]: 3.5%
Solubility in propylene glycol ([5]; propylene glycol): 5%
solubility ([5]; water): 120 mg/mL

CC(C)(Oc1ccc(Cl)cc1)C(=O)OCCNC(=O)c1ccc[n+]([O-])c1 [F 1416, N-oxide of N-nicotinoyl, O-(parachloro phenoxy) isobutanoyl ethanol amine]
LD50 at 96 h ([4]; po, by mouth): 2400 mg/kg
LD50 at 96 h ([4]; ip): ≥ 1000 mg/kg
Solubility in ethanol [5]: 3%
Solubility in propylene alcohol ([5]; propylene alcohol): 1%
Solubility in water (in words) ([5]; water): Insoluble

O=C(O)c1cccnc1 [Nicotinic acid, nicotinic acid]
Cholesterol % variation [1, 10]: -67%
Kunkel phenol % variation [1, 10]: -75%
Cholesterol % variation referred to the control [2, 11]: -25%
Triglycerides % variation referred to the control [2, 11]: -47%
Cholesterol % variation referred to the control ([3]; nicotinic acid 100 mg/kg): -22%
